# How the values were obtained:
# [1] = system: acute migraine; experiment: Phase IIb randomized, double-blind, placebo-controlled trial of ubrogepant (MK-1602-006; NCT01613248): efficacy; assay type: in vivo, human
# Description: A Phase IIb, multicenter, randomized, double-blind, placebo-controlled trial was conducted (Merck Protocol MK-1602-006;published online at ClinicalTrials.gov as NCT01613248) to investigate the efficacy and safety of ubrogepant across a range of doses. The study was conducted in accordance with principles of Good Clinical Practice, and was approved by Schulman Associates Institutional Review Board Inc. Each participant provided written informed consent. This study complied with the International Headache Society's guidelines for controlled trials of drugs in migraine, including the use of two-hour pain freedom as an endpoint. The sample size was large, populations were well balanced, and demographics were reflective of the broader migraine populations, contributing to the generalizability of the trial. Participants were allocated in a double-blind fashion using a computer-generated randomized allocation schedule prepared by a blinded statistician. Randomization was stratified based on the participant's self-reported usual triptan response: oral triptan high-responder (current users of triptans who respond […]); oral triptan low-responder (current users of triptans who respond <75% of the time or those who have tried triptans but no longer use them); oral triptan naive. Numbered containers were used to implement allocation. Personnel at each study site used a central interactive voice response system to determine which container should be given to which participant. All study personnel, including investigators, site staff, participants, and sponsor staff remained blinded to treatment allocation throughout the study. Unblinding took place after data collection was complete. After being randomized, participants had up to two months to treat a qualifying migraine (as defined herein). Once the targeted number of treated participants with evaluable data was reached, study enrollment was stopped, as specified in the protocol at the sponsor's discretion. Participants who were enrolled but had not treated a migraine were asked to return their study medication and were discontinued from the study With reference to FIG. 1, eligible participants were allocated in a 1:1 ratio to one of the following treatment groups: 1, 10, 25, 50, and 100 mg of ubrogepant, or placebo. Study medication was provided to participants in a single bottle, with a single dose per bottle. Participants were instructed to take the dose when they experienced a qualifying migraine defined by the following conditions: migraine headache was moderate or severe (grade 2 or 3 on pain scale); migraine headache started less than four hours earlier; the migraine headache was a new headache that had not been previously treated and was not a recurrence of a previous migraine head ache (at least 48 hours had elapsed since the complete termination of their last attack (pain and all associated symptoms); no other migraine headache or headache had occurred in the previous 48 hours; the migraine headache was not already resolving on its own; and no prohibited medication had been taken. The onset of migraine and the results from administering the study medication were self-reported by participants using a paper diary. Headache severity was measured on the following pain scale: 0 none; 1 mild; 2 moderate; 3 severe. Participants assessed headache at baseline and then every 30 minutes up to two hours, then hourly up to four hours and at 6,8,24, and 48 hours. The primary efficacy endpoints were pain freedom at two hours post-dose (reduction in headache severity from grade 2 or 3 at baseline to grade 0) and headache response at two hours post-dose (reduction in headache severity from grade 2 or 3 at baseline to grade 1 or 0). […]
# [2] = Phase IIb randomized, double-blind, placebo-controlled trial of ubrogepant (MK-1602-006; NCT01613248): safety endpoints; assay type: in vivo, human
# Description: A Phase IIb, multicenter, randomized, double-blind, placebo-controlled trial was conducted (Merck Protocol MK-1602-006;published online at ClinicalTrials.gov as NCT01613248) to investigate the efficacy and safety of ubrogepant across a range of doses. The study was conducted in accordance with principles of Good Clinical Practice, and was approved by Schulman Associates Institutional Review Board Inc. Each participant provided written informed consent. This study complied with the International Headache Society's guidelines for controlled trials of drugs in migraine, including the use of two-hour pain freedom as an endpoint. The sample size was large, populations were well balanced, and demographics were reflective of the broader migraine populations, contributing to the generalizability of the trial.
# With reference to FIG. 1, eligible participants were allocated in a 1:1 ratio to one of the following treatment groups: 1, 10, 25, 50, and 100 mg of ubrogepant, or placebo. Study medication was provided to participants in a single bottle, with a single dose per bottle. Participants were instructed to take the dose when they experienced a qualifying migraine defined by the following conditions: migraine headache was moderate or severe (grade 2 or 3 on pain scale); migraine headache started less than four hours earlier; the migraine headache was a new headache that had not been previously treated and was not a recurrence of a previous migraine head ache (at least 48 hours had elapsed since the complete termination of their last attack (pain and all associated symptoms); no other migraine headache or headache had occurred in the previous 48 hours; the migraine headache was not already resolving on its own; and no prohibited medication had been taken.
# Participants were also monitored for safety endpoints, including standard safety assessment (medical history and physical examination; vital signs; electrocardiogram; laboratory tests including hematology, blood chemistry, and urinalysis; and female participants of childbearing potential were administered pregnancy tests) and adverse events, including any post-screening elevation in participants of aspartate amino-transferase (AST) and/or ALT, defined as: >3×upper-limit-of-normal (>3×ULN).
# For the analysis of efficacy data, the Full-Analysis-Set population served as the primary population. […] The All-Subjects-as-Treated (ASaT) population was used for safety analyses.
structure (smiles),measurement,setting,value
C[C@@H]1[C@H](c2ccccc2)C[C@H](NC(=O)c2cnc3c(c2)C[C@@]2(C3)C(=O)Nc3ncccc32)C(=O)N1CC(F)(F)F [ubrogepant],two-hour pain-free rate vs placebo,"[1]; 25 mg, oral, two hours post-dose, nominal p value",nominally significantly higher two-hour pain-free rate than placebo
same,sustained pain freedom 2-24 hours vs placebo,"[1]; 25 mg, oral, nominal p value",Nominally significant differences from placebo
same,sustained pain relief 2-48 hours vs placebo,"[1]; 25 mg, oral, nominal p value",Nominally significant differences from placebo
same,total migraine freedom at two hours vs placebo,"[1]; 25 mg, oral, nominal p value",Nominally significant differences from placebo
same,two-hour pain-free rate vs placebo,"[1]; 50 mg, oral, two hours post-dose, nominal p value",nominally significantly higher two-hour pain-free rate than placebo
same,absence of phonophobia at two hours vs placebo,"[1]; 50 mg, oral, nominal p value",Nominally significant differences from placebo
same,absence of photophobia at two hours vs placebo,"[1]; 50 mg, oral, nominal p value",Nominally significant differences from placebo
same,sustained pain freedom 2-24 hours vs placebo,"[1]; 50 mg, oral, nominal p value",Nominally significant differences from placebo
same,sustained pain relief 2-24 hours vs placebo,"[1]; 50 mg, oral, nominal p value",Nominally significant differences from placebo
same,sustained pain relief 2-48 hours vs placebo,"[1]; 50 mg, oral, nominal p value",Nominally significant differences from placebo
same,total migraine freedom 2-24 hours vs placebo,"[1]; 50 mg, oral, nominal p value",Nominally significant differences from placebo
same,total migraine freedom at two hours vs placebo,"[1]; 50 mg, oral, nominal p value",Nominally significant differences from placebo
same,two-hour pain freedom vs placebo,"[1]; 100 mg, oral, two hours post-dose",statistically significant superiority to placebo
same,secondary endpoints vs placebo,"[1]; 100 mg, oral, nominal p values",nominally significant improvements vs placebo on all secondary endpoints except absence of nausea at two hours
same,treatment effects across most endpoints (all efficacy data),"[1]; 25-mg, 50-mg, and 100-mg doses",consistent positive treatment effects
same,"response trend across ubrogepant doses, proportion of participants who achieved two-hour pain freedom","[1]; oral tablet, single dose, 1, 10, 25, 50, 100 mg, p<0.001 for trend test",positive response trend
same,dose dependence of AEs,[2]; 1-100 mg single dose,No AEs showed clear dose dependence
same,incidence of AEs within the 14 days post-dose,[2]; compared with incidence within 48 hours,generally similar to the incidence within 48 hours
same,other abnormal laboratory values,[2]; single dose,no other abnormal laboratory values of clinical relevance
same,post-treatment elevations of ALT >3×ULN,[2]; single dose,no observed post-treatment elevations
same,liver enzyme increases,[2]; single-dose study,no liver enzyme increases clearly attributable to administration of ubrogepant
same,tolerability on administration,[2]; summary statement,well-tolerated
